Biological target: T1, adenosine A1 receptor (Rattus norvegicus, UniProt P25099)
T1 construct: brain minus cerebellum and brainstem from male Long Evans rats (150-200 g) was homogenized; from tissue; host or cells: rat whole brain minus cerebellum and brainstem, membrane homogenate
T1 sequence (P25099 1-326): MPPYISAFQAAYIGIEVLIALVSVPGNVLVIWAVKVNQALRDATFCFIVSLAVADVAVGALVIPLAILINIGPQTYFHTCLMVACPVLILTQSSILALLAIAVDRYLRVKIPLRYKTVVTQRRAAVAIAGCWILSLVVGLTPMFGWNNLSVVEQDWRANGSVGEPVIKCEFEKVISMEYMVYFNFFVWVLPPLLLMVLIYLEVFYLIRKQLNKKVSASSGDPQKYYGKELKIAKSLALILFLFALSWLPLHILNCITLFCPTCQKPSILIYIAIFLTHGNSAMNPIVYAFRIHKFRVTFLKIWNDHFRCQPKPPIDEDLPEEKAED
Experiment: Adenosine Receptor Binding - A1 Receptor Affinity (RBA1), [3H]-CHA displacement
Conditions: 1.0 nM [3H]-CHA, rat whole brain membranes, one hour at 25°C; read-out: Receptor Binding RBA—1
Procedure: While brain minus cerebellum and brainstem from male Long Evans rats (150-200 g) was homogenized in 30 volumes of ice-cold 0.05 M Tris-CHI buffer pH 7.7 using a Brinkman Polytron PT-10, (setting number 6 for 20 seconds) and centrifuged for ten minutes at 20,000 x g (Sorvall RC-2), 4°C. The supernatant was discarded, and the pellet was resuspended and centrifuged as before. The pellet was resuspended in 20 ml Tris-HCI buffer containing two International Units/ml of adenosine deaminase (Sigma type III from calf intestinal mucosa), incubated at 37°C for 30 minutes, then subsequently at 0°C for ten minutes. The homogenate was again centrifuged, and the final pellet was resuspended in ice-cold 0.05 M Tris-HCI buffer pH 7.7 to a concentration of 20 mg/ml original wet tissue weight and used immediately.
Tissue homogenate (10 mg/ml) was incubated in 0.05 M Tris-HCI buffer pH 7.7 containing 1.0 nM (^3H]-N^e-cyclohexyladenosine ([^3H]-CHA) with or without tests agents in triplicate for one hour at 25°C. Incubation volume was 2 ml. Unbound [^3H]-CHA was separated by rapid filtration under reduced pressure through Whatman glass fiber (GF/B) filters. The filters were rinsed three times with 5 ml of ice cold 0.05 M Tris-HCI buffer pH 7.7. The radio-labeled ligand retained on the filter was measured by liquid scintillation spectrophotometry after shaking the filters for one hour or longer on a mechanical shaker in 10 ml of Beckman Ready-Solv HP scintillation cocktail.
Nonspecific binding was defined as the binding which occurred in the presence of 1 mM theophylline. […] The Scatchard plot was calculated by linear regression of the line obtained by plotting the amount of radioligand bound (pmoles/gram of tissue) [formula] Since the amount of radioligand bound was a small fraction of the total amount added, free radioligand was defined as the concentration (nM) of radioligand added to the incubation mixture. The Hill coefficient was calculated by linear regression of the line obtained by plotting the log of the bound radioligand vs the log of the [formula] The maximal number of binding sites (Bmax) was calculated from the Scatchard plot.

O[C@@H]1[C@H](O)[C@@H](CCl)O[C@H]1n1cnc2c(NC3CCc4ccccc43)ncnc21 (stereo partly drawn) [Example 23, (R)-N^6(1-Indanyl)-5'-deoxy-5'-chloroadenosine]
IC50: 80 nM

C[C@H]1O[C@@H](n2cnc3c(NCc4cccc5ccccc45)ncnc32)[C@H](O)[C@@H]1O [Example 20, N^6-α-Naphthylmethyl-5' -deoxyadenosine]
IC50: 1010 nM

C[C@H]1O[C@@H](n2cnc3c(NC4CCCc5ccccc54)ncnc32)[C@H](O)[C@@H]1O (stereo partly drawn) [Example 19, N^6-1-Tetralinyl-5' -deoxyadenosine]
IC50: 1370 nM
